“Also recorded” adds a separate entry of the source. One block for each compound: values may come before it.
Tests used:
Type in all cases: physicochemical
[1] = Competitive slurry experiments of Forms 1, 3, 8 and 9
Procedure: Approximately 5 mg of Compound A diacetate salt Forms 1, 3, 8 and 9 were combined into 8×4 mL vials. The appropriate solvent was added to form a slurry and the samples were shaken at ambient or 60° C. for ca. 48 hours. The samples were then removed from shaking and centrifuge filtered. […] The solids were recovered from the XRPD plate and placed back on to shake as before for an additional 3 days before being re-analyzed by XRPD. […]

[2] = Approximate solvent solubility screen of Compound A diacetate salt in 18 solvent systems; details: thermodynamic from solid
Procedure: Approximately 380 mg of Form 1 was dissolved in 35 mL of methanol and rotary evaporated. […] A sub-sample was taken for further characterization (TG/DSC, ^1H NMR and PLM). The crystalline material isolated post rotary-evaporation was re-dissolved in 27 mL of water. The solution remained slightly turbid so was syringe filtered to give a clear solution which was split equally among 18 vials to give approximately 20 mg of material per vial. The samples were then frozen at −50° C. before being lyophilized for ca. 72 hours. […] This material was used as input for the solvent solubility screen described below.
The solubility of Compound A diacetate salt was tested in 18 solvent systems. The appropriate solvent was added in 100 μL aliquots to approximately 20 mg of the lyophilized Compound A diacetate salt. Between each addition, the mixture was checked for dissolution and where no dissolution was apparent, the mixture was heated to ca. 40° C. and checked again. This procedure was continued until dissolution was observed or until 100 volumes of solvent had been added.
The solids were then isolated via centrifugal filtration and analyzed by XRPD. If the samples fully dissolved on addition of solvent (methanol and water only), they were uncapped and left to evaporate at ambient. Any solids recovered post-evaporation were then analyzed by XRPD.

[3] = Thermodynamic solubility in water and a pH 7.4 phosphate buffer; details: slurry agitated at ambient ca. 24 hours, HPLC; for solubility: diacetate; for solubility at 24 h: thermodynamic from solid
Procedure: (§1) 25.6 mL of 2-propanol was added to the lyophilized Compound A diacetate salt to form a slurry. The slurry was then temperature cycled between ambient and 40° C. in 4 hour cycles with agitation for ca. 24 hours. The slurry was then filtered and the isolated solids collected into a scintillation vial. A subsample was analyzed by XRPD and the vial was left uncapped to allow the solids to […] at ambient for ca. 24 hours. The material was then re-analyzed by XRPD post-drying and fully characterized using the following techniques: TG/DSC, DSC, DVS with post-DVS XRPD analysis, PLM, FT-IR, ^1H NMR, Purity by HPLC, TG/DSC with post TG/DSC XRPD analysis, and 7 Day Stability Assessment (ca. 10 mg of the material was stored at 40° C./75% RH. 80° C. and ambient light and humidity for 1 week. The solids were then analyzed by XRPD and purity obtained by HPLC). Thermodynamic solubility in water and a pH 7.4 phosphate buffer (The appropriate media was added in 100 μL aliquots to ca. 20 mg of the material to form a slurry. The samples were then sealed and agitated at ambient for ca. 24 hours before being centrifuge filtered. The isolated solids were analyzed by XRPD and the concentration of the mother liquors determined by HPLC).
The material appears highly insoluble in the phosphate buffer with all Forms having a solubility of 0.3 mg/mL except from Form 2 which has a solubility of 0.2 mg/mL.

[4] = Dynamic vapour sorption (DVS) with post-DVS XRPD; details: for form of recovered solid by post-DVS XRPD: after DVS cycles; for form conversion during DVS / weight loss on form conversion during DVS: at 50% RH
Procedure: Approximately, 10-20 mg of sample was placed into a mesh vapour sorption balance pan and loaded into a DVS Intrinsic dynamic vapour sorption balance by Surface Measurement Systems. The sample was subjected to a ramping profile from 40-90% relative humidity (RH) at 10% increments, maintaining the sample at each step until a stable weight had been achieved (dm/dt 0.004%, minimum step length 30 minutes, maximum step length 500 minutes) at 25° C. After completion of the sorption cycle, the sample was dried using the same procedure to 0% RH and then a second sorption cycle back to 40% RH. Two cycles were performed. The weight change during the sorption/desorption cycles were plotted, allowing for the hygroscopic nature of the sample to be determined. XRPD analysis was then carried out on any solid retained.

[5] = 7 Day Stability Assessment (XRPD form and HPLC purity after storage); details: diacetate; for one-week stability: form by XRPD: 1 week (Form 1: 2 and 7 days)
Procedure: as §1

[6] = Ethyl Acetate, 2000 μL, Ambient
[7] = ambient temperature and humidity

SMILES: CC(=O)O.CC(=O)O.N=C(N)c1ccc(OCCCCCOc2ccc(C(=N)N)nc2)cc1
XRPD Pattern (2 Days) ([1]; Acetone, 1000 μL, 60° C.): All patterns
XRPD Pattern (5 Days) ([1]; Acetone, 1000 μL, 60° C.): All patterns
XRPD Pattern (2 Days) ([1]; Acetone, 2000 μL, Ambient): All patterns
XRPD Pattern (5 Days) ([1]; Acetone, 2000 μL, Ambient): All patterns
XRPD Pattern (2 Days) ([1]; DCM, 1000 μL, 60° C.): All patterns
XRPD Pattern (5 Days) ([1]; DCM, 1000 μL, 60° C.): All patterns
XRPD Pattern (2 Days) ([1]; DCM, 2000 μL, Ambient): All patterns
XRPD Pattern (5 Days) ([1]; DCM, 2000 μL, Ambient): All patterns
XRPD Pattern (2 Days) ([1]; Ethanol, 1000 μL, 60° C.): 8 + 1
XRPD Pattern (2 Days) ([1]; Ethanol, 2000 μL, Ambient): 8 + 1
XRPD Pattern (5 Days) ([1]; Ethanol, 2000 μL, Ambient): 6
XRPD Pattern (2 Days) [1, 6]: All patterns
XRPD Pattern (5 Days) [1, 6]: All patterns
XRPD Pattern (2 Days) ([1]; Etyl Acetate, 1000 μL, 60° C.): All patterns
XRPD Pattern (5 Days) ([1]; Etyl Acetate, 1000 μL, 60° C.): 1 + 8

SMILES: CC(=O)O.CC(=O)O.N=C(N)c1ccc(OCCCCCOc2ccc(C(=N)N)nc2)cc1 [Compound A diacetate salt, 5-((5-(4-carbamimidoylphenoxy)pentyl)oxy)picolinimidamide diacetate]
solubility ([2]; all solvents investigated except methanol and water, organic solvent or mixture, read-out: solubility): < 5000 µg/mL
solubility ([2]; organic solvent or mixture, 1,4-Dioxane, lyophilized material, ambient to ca. 40° C., read-out: Approximate Solvent Solubility): ≤ 5000 µg/mL
solubility ([2]; organic solvent or mixture, 2-Propanol, lyophilized material, ambient to ca. 40° C., read-out: Approximate Solvent Solubility): ≤ 5000 µg/mL
solubility ([2]; organic solvent or mixture, 2-methyl THF, lyophilized material, ambient to ca. 40° C., read-out: Approximate Solvent Solubility): ≤ 5000 µg/mL
solubility ([2]; organic solvent or mixture, Acetone, lyophilized material, ambient to ca. 40° C., read-out: Approximate Solvent Solubility): ≤ 5000 µg/mL
solubility ([2]; organic solvent or mixture, Acetonitrile, lyophilized material, ambient to ca. 40° C., read-out: Approximate Solvent Solubility): ≤ 5000 µg/mL
solubility ([2]; organic solvent or mixture, Dichloromethane, lyophilized material, ambient to ca. 40° C., read-out: Approximate Solvent Solubility): ≤ 5000 µg/mL
solubility ([2]; organic solvent or mixture, Dimethylsulfoxide, lyophilized material, ambient to ca. 40° C., read-out: Approximate Solvent Solubility): ≤ 5000 µg/mL
solubility ([2]; organic solvent or mixture, Ethanol, lyophilized material, ambient to ca. 40° C., read-out: Approximate Solvent Solubility): ≤ 5000 µg/mL
solubility ([2]; organic solvent or mixture, Ethyl Acetate, lyophilized material, ambient to ca. 40° C., read-out: Approximate Solvent Solubility): ≤ 5000 µg/mL
solubility ([2]; organic solvent or mixture, Isopropyl Acetate, lyophilized material, ambient to ca. 40° C., read-out: Approximate Solvent Solubility): ≤ 5000 µg/mL
solubility ([2]; organic solvent or mixture, Methanol, lyophilized material, ambient to ca. 40° C., read-out: Approximate Solvent Solubility): 20000 µg/mL
solubility ([2]; organic solvent or mixture, Methylethyl Ketone, lyophilized material, ambient to ca. 40° C., read-out: Approximate Solvent Solubility): ≤ 5000 µg/mL
solubility ([2]; organic solvent or mixture, N,N′-Dimethylacetamide, lyophilized material, ambient to ca. 40° C., read-out: Approximate Solvent Solubility): ≤ 5000 µg/mL
solubility ([2]; organic solvent or mixture, N,N′-Dimethylformamide, lyophilized material, ambient to ca. 40° C., read-out: Approximate Solvent Solubility): ≤ 5000 µg/mL
solubility ([2]; organic solvent or mixture, N-Methylpyrrolidone, lyophilized material, ambient to ca. 40° C., read-out: Approximate Solvent Solubility): ≤ 5000 µg/mL
solubility ([2]; organic solvent or mixture, Tetrahydrofuran, lyophilized material, ambient to ca. 40° C., read-out: Approximate Solvent Solubility): ≤ 5000 µg/mL
solubility ([2]; organic solvent or mixture, Toluene, lyophilized material, ambient to ca. 40° C., read-out: Approximate Solvent Solubility): ≤ 5000 µg/mL
solubility ([2]; Water, lyophilized material, ambient to ca. 40° C., read-out: Approximate Solvent Solubility): 50000 µg/mL

SMILES: CC(=O)O.CC(=O)O.N=C(N)c1ccc(OCCCCCOc2ccc(C(=N)N)nc2)cc1 [Form 1, 5-((5-(4-carbamimidoylphenoxy)pentyl)oxy)picolinimidamide diacetate]
solubility ([3]; pH 7.4 Phosphate Buffer): 0.3 mg/mL
solubility at 24 h ([3]; water): 49.5 mg/mL
hygroscopicity by DVS ([4]; DVS, 25° C., diacetate): slightly hygroscopic
DVS: form post-DVS ([4]; XRPD post-DVS): water) at 90% RH. No change
form of recovered solid by post-DVS XRPD ([4]; 25° C., diacetate): remained as the received pattern 1; also recorded: No change in form
DVS ([4]; hygroscopicity / form change during DVS cycle, diacetate): Slightly hygroscopic
one-week stability: form by XRPD ([5]; 40° C./75% RH): no change in form
one-week stability: form by XRPD ([5]; 80° C.): no change in form
one-week stability: form by XRPD [5, 7]: no change in form
1 Week Stability ([5]; form by XRPD after storage at 40° C./75% RH, ambient or 80° C.): No change in form by XRPD

Further lines, with some results ahead:

solubility at 24 h ([3]; phosphate buffer, pH 7.4, aqueous buffer, pH 7.4 Phosphate Buffer): 0.2 mg/mL
SMILES: CC(=O)O.CC(=O)O.N=C(N)c1ccc(OCCCCCOc2ccc(C(=N)N)nc2)cc1 [Form 2, 5-((5-(4-carbamimidoylphenoxy)pentyl)oxy)picolinimidamide diacetate]

solubility ([3]; Water): 38.5 mg/mL
solubility ([3]; pH 7.4 Phosphate Buffer): 0.2 mg/mL
form of recovered solid by post-DVS XRPD ([4]; 25° C., diacetate): conversion to Form 9
weight loss on form conversion during DVS ([4]; 25° C., diacetate): approximately 4 wt. %
one-week stability: form by XRPD ([5]; 40° C./75% RH): convert to Form 1
one-week stability: form by XRPD ([5]; 80° C.): no change
one-week stability: form by XRPD [5, 7]: convert to Form 1
SMILES: CC(=O)O.CC(=O)O.N=C(N)c1ccc(OCCCCCOc2ccc(C(=N)N)nc2)cc1 [Form 3, 5-((5-(4-carbamimidoylphenoxy)pentyl)oxy)picolinimidamide diacetate]
form conversion during DVS ([4]; 25° C., diacetate): convert to the hydrated Form 9; also recorded: convert to Form 9 (dihydrate)

solubility ([3]; Water): 38.7 mg/mL
solubility ([3]; pH 7.4 Phosphate Buffer): 0.3 mg/mL
form of recovered solid by post-DVS XRPD ([4]; 25° C., diacetate): conversion of Form 8 to Form 1
form conversion during DVS ([4]; 25° C., diacetate): desolvate and convert to Form 1
weight loss on form conversion during DVS ([4]; 25° C., diacetate): 8.2 wt. %
DVS mass increase ([4]; at 90% RH, diacetate): hygroscopic with a 1.6% mass
one-week stability: form by XRPD ([5]; 40° C./75% RH): convert to Form 1
one-week stability: form by XRPD ([5]; 80° C.): no change in form
SMILES: CC(=O)O.CC(=O)O.N=C(N)c1ccc(OCCCCCOc2ccc(C(=N)N)nc2)cc1 [Form 8, 5-((5-(4-carbamimidoylphenoxy)pentyl)oxy)picolinimidamide diacetate]
one-week stability: form by XRPD [5, 7]: convert to Form 1; also recorded: partial conversion to Form 1

From US20260274798A1, “PENTAMIDINE ANALOGUE POLYMORPHS, FORMULATIONS, AND METHODS THEREOF” (AURANSA INC., priority 2023, published 2026)
